Laboratory results from patent US4751305A, “2-heterocyclobenzo[B][1,6]naphthyridines as inhibitors of interleukin” (American Home Products Corporation, priority 1987, dated 1988).

Tested on: IL 1-induced release of neutral protease from rabbit articular chondrocytes
Assay: inhibition of the IL 1-induced release of neutral protease from rabbit articular chondrocytes (azocoll neutral protease assay)
Type: cell-based
Conditions: Oryctolagus cuniculus, Chondrocyte, compound 10 min before purified human IL 1, 24 h, read-out: % Inhibition (I.S.D.)
Description: The ability of the compounds of the inventions to inhibit interleukin 1 is measured by the ability of the test compounds to inhibit the IL 1-induced release of neutral protease from rabbit articular chondrocytes.
This assay is carried out as follows:
Isolation of rabbit chondrocytes:
Male New Zealand White rabbits are anesthetized with 50 mg/kg of ketamine (i.m.) and killed by an intracardiac injection of 3 mls. of Nembutal. The knee joints of both legs are resected and the articular surfaces are exposed. Cartilage slices are obtained using a scalpel and are placed in a tissue culture dish (100 mm diameter) containing 10 mls of Hank's balanced salt solution (HBSS). The chondrocytes within the cartilage slices are then liberated by a series of enzyme digestions. The slices are incubated for 10 min. at 37° C. in 0.05% hyaluronidase (Sigma H-3884), rinsed with HBSS and incubated with 0.2% trypsin (Sigma T-2395) for 10 min. at 37° C. The slices are rinsed again and incubated for 10 mins. at 37° C. with 1.2% collagenase (Sigma C-5138). The slices are then rinsed again with HBSS and resuspended in 10 ml of Ham's F-12 medium containing 10% fetal bovine calf serum (FCS) and 0.2% collagenase and incubated overnight at 37° C. in a 5% CO2 incubator. The next day, the medium containing the digested cartilage fragments and liberated chondrocytes is transferred to a 15 ml centrifuge tube and the cells are collected by centrifugation and washed twice and resuspended in Ham's F-12 medium. The cells are then plated into 24-well tissue culture plates (2×10^5 cells/well) and incubated at 37° C. until confluent (usually 4-6 days).
Stimulation of chondrocytes and drug treatment:
The confluent chondrocytes are rinsed twice with serum-free Ham's F-12 medium and 1 ml is added to each well. Fifty $1 of purified human IL 1(100 Units/ml; Genzyme Corporation, Boston, MA) is then added to stimulate these cells to secrete neutral protease. To measure drug effects, the cells are treated with test compound 10 min. prior to addition of IL 1. The standard screening dose is 10 $M. Twenty-four hours after IL 1 stimulation, supernatant fluids are collected and assayed for neutral protease activity.
The neutral protease activity of chondrocyte supernatant fluids is determined by their ability to degrade an insoluble protease substrate, azocoll (Sigma). Supernatants are treated for 10 min. at room temperature with 350 $M p-aminophenyl-murcuric acetate to activate the latent enzyme. Three hundred $1 of supernatant is then mixed with 500 $1 of a 20 mg/ml suspension of azocoll and incubated at 37° C. for 18-24 hrs. with gentle rocking. The mixtures are centrifuged and the amount of substrate hydrolyzed is determined by measuring the absorbance of the supernatant at 520 nm.
Drug effects are calculated as the % change in enzyme activity (absorbance)by supernatants from drug-treated chondrocytes relative to enzyme activity of supernatants from vehicle-treated chondrocytes as follows: [formula]

SMILES	inhibition at 10 µM [%]	inhibition at 5 µM (dose 5 μM) [%]
Clc1ccc2c(Cl)c3c(nc2c1)CCN(c1ncccn1)C3 [Example 1, 7,10-Dichloro-1,2,3,4-tetrahydro-2-(2-pyrimidinyl)benzo[b][1,6]naphthyridine]	34 ± 8	
Clc1ccc2c(Cl)c3c(nc2c1)CCN(c1ccc2ccccc2n1)C3 [Example 3, 7,10-Dichloro-1,2,3,4-tetrahydro-2-(2-quinolinyl)benzo[b][1,6]naphthyridine]	≤ 20	
N#Cc1ccc(N2CCc3nc4cc(Cl)ccc4c(Cl)c3C2)nc1 [Example 4, 6-(7,10-Dichloro-3,4-dihydrobenzo[b][1,6]naphthyridin-2(1H)-yl)-3-pyridine-carbonitrile, hemihydrate]	94	83
Clc1ccc2c(NNc3ccccc3)c3c(nc2c1)CCN(c1cnccn1)C3 [Example 5, 7-Chloro-1,2,3,4-tetrahydro-10-(2-phenylhydrazino)-2-(2-pyrazinyl)benzo[b][1,6]naphthyridine]	85 ± 5	
